In patent publication US20110059953A1, “COMPOUNDS FOR USE IN STABILIZING P53 MUTANTS” (priority 2008, published 2011):

Columns and labels:
T-p53C-Y220C [1] = molecular target: T1, T-p53C-Y220C (Homo sapiens, UniProt P04637, M133L/N239Y/N268D/V203A/Y220C); assay: Thermal denaturation using fluorescence (Sypro Orange); format: binding; conditions: 10 μM protein
T1 construct: For all other experiments, the DNA coding for residues 94-312 of T-p53C was inserted into a modified pET24a(+) vector; 6xHis tag + B. stearothermophilus dihydrolipoyl acetyltransferase lipoyl domain (aa 1-85) + TEV site (N, cleaved yes); made in house; host or cells: Escherichia coli BL21 (DE3) or C41 (DE3)
Procedure: This was by an adaption of the classical procedure (e.g. ref A6). Thermal unfolding was monitored by the binding of the dye Sypro Orange (5×) using a Rotor-gene 6000 (Corbett Life Science) at 270 K/h in 25 mM NaPi, 150 mM NaCl and 5 mM DTT, pH 7.2 with a protein concentration of 10 μM.
(§1) Where listed, S.E. is the calculated standard error.
as §1

T-p53C-Y220C [2] = molecular target: T1, T-p53C-Y220C; assay: Thermal denaturation using capillary DSC; format: binding; conditions: increase in Tm on adding 250 μM of the test compound; 20 μM protein
Procedure: Differential Scanning calorimetry (DSC) was used to probe the stabilising effect of the ligands on […]. For a reversible two-state system, the melting temperature, Tm, is the transition temperature where the folded and unfolded states are equally populated.
DSC experiments were performed using a Microcal VP-Capillary DSC instrument (Microcal, Amherst, Mass.) with an active cell volume of ˜125 μl. Protein samples were buffer exchanged into 25 mM NaPi, pH 7.2, 150 mM NaCl, 5 mM DTT. This buffer + the respective concentration of ligand/DMSO was used for baseline scans, so that the only difference between sample and reference cell or sample cell in the measurement and both cells in the baseline scan is the presence of the protein. A final concentration of 20 μM T-p53C-Y220C was used. A pressure of 2.5 bars (nitrogen) was applied to the cell. Temperatures from 10 to 85° C. were scanned at a rate of 250° C./h, with a filtering period of 4 seconds and feedback gain/mode set at medium. Data were analysed with ORIGIN software (Microcal).
The following tables show the results of the thermal denaturation studies using capillary DSC, where ΔTm is the increase in Tm on adding 250 μM of the test compound. The Dunnett significance test (P) value given is the calculated probability that the change in Tm is insignificant.

[3] = further studies on compounds described above

## CCn1c2ccccc2c2cc(CN3CCC(N4CCN(CCO)CC4)CC3)ccc21 [PK205]
T-p53C-Y220C [1]; [3]
  ΔTm (° C.): 0.4 °C
T-p53C-Y220C [2]
  ΔTm: 0.4 °C

## CCn1c2ccccc2c2cc(NC(=O)CCc3c(C)[nH]c(=O)c(C#N)c3C)ccc21 [PK141]
T-p53C-Y220C [1]; [3]
  ΔTm (° C.): 0.48 °C
T-p53C-Y220C [2]
  ΔTm: 0.48 °C

## CCn1c2ccccc2c2cc(CN3CCN(C)C(CCO)C3)ccc21 (stereo not shown) [PK217]
T-p53C-Y220C [1]; [3]
  ΔTm (° C.): 0.493 °C
T-p53C-Y220C [2]
  ΔTm: 0.47 °C

## CCn1c2ccccc2c2cc(NC(=O)CN3C(=O)NC(C)(c4ccc(OC)cc4)C3=O)ccc21 (stereo not shown) [PK160]
T-p53C-Y220C [1]; [3]
  ΔTm (° C.): 0.42 °C
T-p53C-Y220C [2]
  ΔTm: 0.42 °C

## CCn1c2ccccc2c2cc(NC(=O)COC(=O)Cn3cnc4c3c(=O)n(C)c(=O)n4C)ccc21 [PK114]
T-p53C-Y220C [1]; [3]
  ΔTm (° C.): 0.39 °C
T-p53C-Y220C [2]
  ΔTm: 0.39 °C

## CCn1c2ccccc2c2cc(NC(=O)CN3C(=O)c4ccccc4S3(=O)=O)ccc21 [PK117]
T-p53C-Y220C [1]; [3]
  ΔTm (° C.): 0.47 °C
T-p53C-Y220C [2]
  ΔTm: 0.47 °C

## Cc1ccc(CN2C[C@@H]3C[C@@H](C)N4CCC[C@@]34C2=O)o1 [PK223]
T-p53C-Y220C [1]; [3]
  ΔTm (° C.): 0.40 °C
T-p53C-Y220C [2]
  ΔTm: 0.38 °C

## CCn1c2ccccc2c2cc(CNCCc3ccccc3)ccc21 [PK194]
T-p53C-Y220C [1]; [3]
  ΔTm (° C.): 0.38 °C
T-p53C-Y220C [2]
  ΔTm: 0.38 °C

## CCn1c2ccccc2c2cc(NC(=O)CSc3nccc(=O)[nH]3)ccc21 [PK095]
T-p53C-Y220C [2]
  ΔTm: 0.39 °C

## COc1ccc(N2CCN(Cc3cc4c(cc3O)[nH]c3ccccc34)CC2)cc1 [PK144]
T-p53C-Y220C [1]; [3]
  ΔTm (° C.): 0.51 °C
T-p53C-Y220C [2]
  ΔTm: 0.51 °C

## CCn1c2ccccc2c2cc(NC(=O)CN(CC(N)=O)C(C)C)ccc21 [PK161]
T-p53C-Y220C [1]; [3]
  ΔTm (° C.): 0.46 °C
T-p53C-Y220C [2]
  ΔTm: 0.47 °C

## CCn1c2ccccc2c2cc(CN3CCC4(CC3)CC4C(=O)NCCc3ccccn3)ccc21 (stereo not shown) [PK220]
T-p53C-Y220C [1]; [3]
  ΔTm (° C.): 0.68 °C
T-p53C-Y220C [2]
  ΔTm: 0.64 °C

## CCn1c2ccccc2c2cc(NC(=O)c3ccc(OCC(N)=O)cc3)ccc21 [PK166]
T-p53C-Y220C [1]; [3]
  ΔTm (° C.): 0.64 °C
T-p53C-Y220C [2]
  ΔTm: 0.64 °C

## CCn1c2ccccc2c2cc(NC(=O)C(C)Sc3nc(N)cc(=O)[nH]3)ccc21 (stereo not shown) [PK143]
T-p53C-Y220C [1]; [3]
  ΔTm (° C.): 0.24 °C
T-p53C-Y220C [2]
  ΔTm: 0.24 °C

## CCn1c2ccccc2c2cc(CN(C)C(=O)c3nccnc3N)ccc21 [PK164]
T-p53C-Y220C [1]; [3]
  ΔTm (° C.): 0.51 °C
T-p53C-Y220C [2]
  ΔTm: 0.51 °C

## CCn1c2ccccc2c2cc(CNCCc3c[nH]c4ccccc34)ccc21 [PK193]
T-p53C-Y220C [1]; [3]
  ΔTm (° C.): 0.3 °C
T-p53C-Y220C [2]
  ΔTm: 0.3 °C

## CCn1c2ccccc2c2cc(CNCCCn3cc(C(=O)N4CCOCC4)nn3)ccc21 [PK219]
T-p53C-Y220C [1]; [3]
  ΔTm (° C.): 0.873 °C
T-p53C-Y220C [2]
  ΔTm: 0.85 °C

## CCn1c2ccccc2c2cc(CN(C)C3CCN(C)CC3)ccc21 [PK178]
T-p53C-Y220C [1]; [3]
  ΔTm (° C.): 0.34 °C
T-p53C-Y220C [2]
  ΔTm: 0.5 °C

## CCn1c2ccccc2c2cc(CN3CCNCC3)ccc21 [PK198]
T-p53C-Y220C [1]; [3]
  ΔTm (° C.): 0.25 °C
T-p53C-Y220C [2]
  ΔTm: 0.25 °C

## CCNC(=S)Nc1ccc2c(c1)c1ccccc1n2CC [PK168]
T-p53C-Y220C [1]; [3]
  ΔTm (° C.): 0.4 °C
T-p53C-Y220C [2]
  ΔTm: 0.41 °C

## CCn1c2ccccc2c2cc(CN3CCC(N4CCCCC4)CC3)ccc21 [PK188]
T-p53C-Y220C [1]; [3]
  ΔTm (° C.): 0.39 °C
T-p53C-Y220C [2]
  ΔTm: 0.39 °C

## CCn1c2ccccc2c2cc(NC(=O)COC(=O)c3ccc(-n4cnnn4)cc3)ccc21 [PK138]
T-p53C-Y220C [1]; [3]
  ΔTm (° C.): 0.54 °C
T-p53C-Y220C [2]
  ΔTm: 0.54 °C

## CCn1c2ccccc2c2cc(NC(=O)CSc3nnc(N)s3)ccc21 [PK099]
T-p53C-Y220C [1]; [3]
  ΔTm (° C.): 0.53 °C
T-p53C-Y220C [2]
  ΔTm: 0.53 °C

## CCn1c2ccccc2c2cc(CN3CCCC(N4CCOCC4)C3)ccc21 (stereo not shown) [PK225]
T-p53C-Y220C [1]; [3]
  ΔTm (° C.): 0.55 °C
T-p53C-Y220C [2]
  ΔTm: 0.53 °C

## CCn1c2ccccc2c2cc(NC(=S)Nc3cc(S(=O)(=O)N(C)C)ccc3C)ccc21 [PK102]
T-p53C-Y220C [1]; [3]
  ΔTm (° C.): 0.37 °C
T-p53C-Y220C [2]
  ΔTm: 0.37 °C

## CCn1c2ccccc2c2cc(CN(C)C(=O)NC3CCS(=O)(=O)C3)ccc21 (stereo not shown) [PK148]
T-p53C-Y220C [1]; [3]
  ΔTm (° C.): 0.225 °C
T-p53C-Y220C [2]
  ΔTm: 0.23 °C

## CCn1c2ccccc2c2cc(NC(=O)Cc3ccc(S(=O)(=O)N4CCOCC4)s3)ccc21 [PK115]
T-p53C-Y220C [1]; [3]
  ΔTm (° C.): 0.49 °C
T-p53C-Y220C [2]
  ΔTm: 0.49 °C

## CCN(CCN(C)C)Cc1ccc2c(c1)c1ccccc1n2CC [PK189]
T-p53C-Y220C [1]; [3]
  ΔTm (° C.): 0.23 °C
T-p53C-Y220C [2]
  ΔTm: 0.23 °C

## CNCc1ccc2c(c1)c1ccccc1n2CCS [PK234]
T-p53C-Y220C [1]; further compounds
  ΔTm (° C.): 0.28 °C

## CCn1cc(C(=O)OCC(=O)c2ccc[nH]2)c2ccccc21 [PK279]
T-p53C-Y220C [1]; further compounds
  ΔTm (° C.): 0.24 °C

## COc1ccc2c(c1)c(C(=O)OC(C(N)=O)c1ccccc1)c(C)n2C1CC1 (stereo not shown) [PK294]
T-p53C-Y220C [1]; further compounds
  ΔTm (° C.): 0.064 °C

## CCn1cc(C(=O)OCc2nc(N)nc(Nc3ccccc3)n2)c2ccccc21 [PK301]
T-p53C-Y220C [1]; further compounds
  ΔTm (° C.): 0.3 °C

## CCOC(=O)c1c(C)n(CC)c2ccc(OC(=O)Nc3ccc(Cl)cc3)cc12 [PK246]
T-p53C-Y220C [1]; further compounds
  ΔTm (° C.): 0.31 °C

## CCn1c2ccccc2c2cc(CN3CCOCC3)ccc21 [PK190]
T-p53C-Y220C [1]; further compounds
  ΔTm (° C.): 0.15 °C

## [2H]NNS(=O)(=O)c1ccc(OC(F)(F)F)cc1 [PK254]
T-p53C-Y220C [1]; further compounds
  ΔTm (° C.): 0.43 °C

## [2H]C(=O)OCC(=O)Nc1cc(C)on1 [PK264]
T-p53C-Y220C [1]; further compounds
  ΔTm (° C.): 0.19 °C

## CCCN1CCN(CC(=O)Nc2ccc3c(c2)c2ccccc2n3CC)CC1 [PK126]
T-p53C-Y220C [1]; further compounds
  ΔTm (° C.): 0.23 °C

## CCn1cc(C(=O)NCc2cccc(NC(=O)C3CC3)c2)c2ccccc21 [PK312]
T-p53C-Y220C [1]; further compounds
  ΔTm (° C.): 0.15 °C

## CCn1c2ccccc2c2cc(NC(=O)C3=COCCO3)ccc21 [PK153]
T-p53C-Y220C [1]; further compounds
  ΔTm (° C.): 0.16 °C

## CCn1c2ccccc2c2cc(NC(=O)COc3ccc(S(=O)(=O)N4CCOCC4)cc3)ccc21 [PK094]
T-p53C-Y220C [1]; further compounds
  ΔTm (° C.): 0.195 °C

## CCn1c2ccccc2c2cc(CNCCNCCO)ccc21 [PK392]
T-p53C-Y220C [1]; further compounds
  ΔTm (° C.): 0.70 °C

## CCn1c2ccccc2c2cc(NC(=O)CCCC(=O)O)ccc21 [PK135]
T-p53C-Y220C [1]; further compounds
  ΔTm (° C.): 0.083 °C

## CCn1cc(C=C(C#N)C(N)=O)c2ccccc21 [PK240]
T-p53C-Y220C [1]; further compounds
  ΔTm (° C.): 0.2 °C

## [2H]C(=O)OCC(=O)NC(=O)NCC [PK266]
T-p53C-Y220C [1]; further compounds
  ΔTm (° C.): 0.18 °C

## CCn1cc(C(=O)OCCOc2ccccc2C(C)=O)c2ccccc21 [PK309]
T-p53C-Y220C [1]; further compounds
  ΔTm (° C.): 0.29 °C

## [2H]C(=O)Nc1ccc(N2CCN(C)CC2)cc1C [PK295]
T-p53C-Y220C [1]; further compounds
  ΔTm (° C.): 0.244 °C

## CCn1cc(C(=O)NC(c2cccc(F)c2)c2nccn2C)c2ccccc21 (stereo not shown) [PK317]
T-p53C-Y220C [1]; further compounds
  ΔTm (° C.): 0.09 °C

## CCn1c2ccccc2c2cc(CN3CCN(S(=O)(=O)c4ccccc4)CC3)ccc21 [PK215]
T-p53C-Y220C [1]; further compounds
  ΔTm (° C.): 0.17 °C

## CCn1cc(C(=O)NCc2cccc(NC(=O)C3CC3)c2)c2ccccc21 [PK307]
T-p53C-Y220C [1]; further compounds
  ΔTm (° C.): 0.26 °C

## CNCc1ccc2c(c1)c1ccccc1n2CCCl [PK229]
T-p53C-Y220C [1]; further compounds
  ΔTm (° C.): 0.7 °C

## CCn1c2ccccc2c2cc(CN(C)CC(O)c3ccccc3)ccc21 (stereo not shown) [PK186]
T-p53C-Y220C [1]; further compounds
  ΔTm (° C.): 0.18 °C

## CCn1c2ccccc2c2cc(CNCC(F)(F)F)ccc21 [PK230]
T-p53C-Y220C [1]; further compounds
  ΔTm (° C.): 0.4 °C
